Values after ≈ are worked out from the molar mass of the structure shown. “Also recorded” adds a separate entry of the source.
Key:
[1] = Biopharmaceutics Classification System (BCS) class; conditions: stable crystalline form
Text: The Biopharmaceutics Classification System (BCS) is a system developed by the U.S. Food and Drug Administration (FDA) to differentiate forms of active pharmaceutical ingredients (API) based on their solubility and intestinal permeability, as follows: Class I: high solubility, high permeability; Class II: low solubility, high permeability; Class III: high solubility, low permeability, and Class IV: low solubility, low permeability. Formulating compositions of a BCS II-type API to enhance solubility and thus improve bioavailability can be a challenge.
(§1) The terms “Form A” and “Form B” refer to forms of Compound A that are purified anhydrous crystalline polymorph forms.

[2] = Polymorph stability studies; format: physicochemical; conditions: crystalline polymorphs
Text: as §1

[3] = Dynamic Vapor Sorption (DVS); format: physicochemical; conditions: at 95% RH
[4] = Solubility in aqueous phosphate buffer and FaSSIF, pH 6.5; format: physicochemical
[5] = pKa of aromatic amino group; format: physicochemical; conditions: weakly basic aromatic amino group
[6] = Storage stability study of SDD tablets; format: physicochemical; conditions: tablet form, a year at 40° C./75% relative humidity (RH)
Text: Granules were obtained through dry granulation, milling and mixing process. A dry granulation was obtained by sieving together a mixture of microcrystalline cellulose, lactose monohydrate, croscarmellose sodium, Poloxamer 407, colloidal silicon dioxide and the SDD, then adding magnesium stearate and mixing to obtain a first admixture. The density of the first admixture was increased by dry granulation to provide a first portion of granules. A second portion of magnesium stearate was sieved with a 30-mesh sieve, then combined with the first portion of granules and mixed in a V-blender for 2 minutes to obtain a second admixture. The second portion of granules were then obtained using a roller compactor and milled. The milled granules were added to the V-blender and mixed with the extragranular excipient's microcrystalline cellulose, lactose monohydrate and croscarmellose sodium. The extragranular excipients were sieved through a 30-mesh sieve, then added to the V-blender and mixed with the granules for 2 minutes to provide a third admixture. The third admixture was compressed into different tablet strengths using die that provided conforming tablet sizes.
Active formulation tablets having the composition as described in Table 10 were tested for stability under different storage conditions.

Cc1nc2ccc(F)cc2n1-c1nc(N)c(F)c(Nc2ccc(C(F)(F)F)cc2)n1 [Form A, 5-fluoro-2-(6-fluoro-2-methyl-1H-benzimidazol-1-yl)-N-[4-(trifluoromethyl)phenyl]pyrimidine-4,6-diamine]
BCS class [1]: BCS II substance | polymorph stability [2]: more stable than Form B; also recorded: most stable anhydrous crystalline form

Cc1nc2ccc(F)cc2n1-c1nc(N)c(F)c(Nc2ccc(C(F)(F)F)cc2)n1 [Form I, 5-fluoro-2-(6-fluoro-2-methyl-1H-benzimidazol-1-yl)-N-[4-(trifluoromethyl)phenyl]pyrimidine-4,6-diamine]
water absorption [3]: approximately 1.3% | solubility ([4]; Fasted State Intestinal Fluid (FaSSIF) at pH 6.5): ~18 µg/mL (≈ 42.8 µM) | solubility ([4]; aqueous phosphate buffer at pH 6.5): < 1 µg/mL | pKa [5]: < 3

Cc1nc2ccc(F)cc2n1-c1nc(N)c(F)c(Nc2ccc(C(F)(F)F)cc2)n1 [Form B, 5-fluoro-2-(6-fluoro-2-methyl-1H-benzimidazol-1-yl)-N-[4-(trifluoromethyl)phenyl]pyrimidine-4,6-diamine]
polymorph stability [2]: converts to Form A

Cc1nc2ccc(F)cc2n1-c1nc(N)c(F)c(Nc2ccc(C(F)(F)F)cc2)n1 [Compound A, 5-fluoro-2-(6-fluoro-2-methyl-1H-benzimidazol-1-yl)-N-[4-(trifluoromethyl)phenyl]pyrimidine-4,6-diamine]
chemical and physical stability (XRPD and mDSC) [6]: both chemically and physically stable in tablet form and remained in an amorphous state
